Assay results taken from US20120003661A1, “METHODS AND DEVICES FOR THE SELECTIVE DETECTION OF MICROORGANISMS” (C3 JIAN, INC., priority 2010, published 2012).
“Also recorded” adds a separate entry of the source. Like-named read-outs stand apart in the source and are kept apart here.

Tested on: bacteria, fungi, and/or yeasts
Assay type: binding
[1] = microorganism(s) listed as target(s) of the targeting peptide, wrapped target lists given cell by cell
[2] = microorganism(s) the targeting peptide binds, as listed in Table 2
[3] = microorganism(s) that the targeting peptide binds, as listed in Table 2

| Substance | Target(s) [1] | Target(s) [2] | other results |
| --- | --- | --- | --- |
| PF-126 (FSPEAFGIGAAGVLGSFVTGLLIGWVASLLRKAK) | S. epidermidis, M. luteus, P. mirabilis,; also recorded: E. coli, P. aeruginosa,; also recorded: C. albicans, MRSA, S. pneumoniae,; also recorded: E. faecalis, C. jeikeium,; also recorded: C. jejuni | – | – |
| PF-S024 (SKRGRKRKDRRKKKANHGKRPNS) | Corynebacteria spp. | – | – |
| PF-066 (IKGTVKAVDETTVVITVNGHGTELTFEKPAIKQVDPS) | M. luteus, E. coli, C. jeikeium | – | – |
| 1T-198 (MPVSKKRYMLSSAYATALGICYGQVATDEKESEITAIPDLLDYLSVEEYLL) | – | P. gingivalis, S. epidermidis, S. gordonii,; also recorded: S. mitis, S. mutans, S. oralis,; also recorded: S. sanguinis | – |
| TT-311 (AIFDAMHNL) | S. mutans, S. sobrinus | – | – |
| PF-043 (MIKNETAYQMNELLVIRSAYAK) | M. luteus, C. jejuni | – | – |
| PF-C052 (SRFRNGV) | – | – | Target(s) [3]: A. naeslundii, F. nucleatum, S. mutans |
| PF-029 (NSTNE) | S. epidermidis, M. luteus, C. albicans,; also recorded: C. jejuni | – | – |
| 1T-109 (VTTNVRQGAGS) | – | A. naeslundii, S. epidermidis, S. gordonii,; also recorded: S. mitis, S. mutans, S. oralis,; also recorded: S. salivarious, S. sanguinis | – |
| PF-067 (DLIVKVHICFVVKTASGYCYLNKREAQAAI) | S. epidermidis, M. luteus, P. mirabilis,; also recorded: E. coli, P. aeruginosa,; also recorded: C. albicans, MRSA, S. pneumoniae,; also recorded: E. faecalis, C. jeikeium,; also recorded: C. jejuni | – | – |
| 1T-252 (MKKNLKRFYALVLGFIIGCLFVSILIFIGY) | F. nucleatum, S. sanguinis | – | – |
| 1T-199 (RAGRIKKLSQKEAEPFEN) | – | S. sanguinis | – |
| 1T-51 (GKPKRMPAEFIDGYGQALLAGA) | – | S. aureus, P. aeruginosa | – |
| 1T-115 (LLIERFSNHH) | – | A. naeslundii, F. nucleatum, P. gingivalis,; also recorded: S. epidermidis, S. gordonii,; also recorded: S. mitis, S. mutans, S. oralis,; also recorded: S. salivarious, S. sanguinis | – |
| PF-794 (NLYFENQGN) | – | – | Target(s) [3]: S. mutans |
| 1T-106 (DALRRSRSQGRRHR) | – | S. gordonii, S. mitis, S. mutans,; also recorded: S. oralis, S. salivarious | – |
| 1T-149 (SVRAVKPIDETVARHFPGDFIVN) | – | A. naeslundii, F. nucleatum, P. gingivalis,; also recorded: T. denticola, S. gordonii,; also recorded: S. mitis, S. mutans, S. oralis,; also recorded: S. salivarious, S. sanguinis | – |
| 1T-96 (VAGACAQPFGGQ) | – | S. gordonii, S. mitis, S. mutans,; also recorded: S. oralis, S. sanguinis | – |
| PF-C143 (VVFGGGDRLV) | – | – | Target(s) [3]: A. naeslundii, F. nucleatum, P. gingivalis,; also recorded: S. mutans, T. denticola |
| 1T-284 (FQYYFSLKRV) | A. naeslundii, F. nucleatum, P. gingivalis,; also recorded: S. gordonii, S. mitis,; also recorded: S. mutans, S. oralis, S. salivarious,; also recorded: S. sanguinis | – | – |
| PF-C145 (YGKESDP) | – | – | Target(s) [3]: A. naeslundii, F. nucleatum, P. gingivalis,; also recorded: S. mutans, T. denticola |
| 1T-294 (YDKIADGVFKIGKRGVL) | T. denticola | – | – |
| 1T-267 (RIKEERKNRSYKFFIWRLFDEKTGFI) | A. naeslundii, F. nucleatum, P. gingivalis,; also recorded: T. denticola, S. mitis,; also recorded: S. mutans, S. oralis, S. sanguinis | – | – |
| 1T-268 (PITPKKEKCGLGTYAPKNPVFSKSRV) | F. nucleatum, S. mutans, S. oralis,; also recorded: S. sanguinis | – | – |
| 1T-233 (TDQELEHLIVTELESKRLDFTYSKDITEFFDEAFPEYDQNY) | – | A. naeslundii, P. gingivalis, S. epidermidis,; also recorded: S. gordonii, S. mitis,; also recorded: S. mutans, S. oralis, S. salivarious,; also recorded: S. sanguinis | – |
| PF-064 (DYYGKE) | E. coli | – | – |
| 1T-277 (IYYMRFVNKPLEKTFFKI) | A. naeslundii, F. nucleatum, P. gingivalis,; also recorded: T. denticola, S. gordonii,; also recorded: S. mitis, S. mutans, S. oralis,; also recorded: S. salivarious, S. sanguinis | – | – |
| 1T-153 (YIACPGYFY) | – | A. naeslundii, F. nucleatum, P. gingivalis,; also recorded: S. epidermidis, S. gordonii,; also recorded: S. mitis, S. mutans, S. oralis,; also recorded: S. salivarious, S. sanguinis | – |
